In patent US12398140B2, “Substituted pyrrolo [2,3-d]pyrimidines for treating familial dysautonomia” (PTC THERAPEUTICS, INC., priority 2019, dated 2025):

System: Elongator complex protein 1 (ELPI, also referred to as IKBKAP)
Assay: IKBKAP-HTRF assay (IKBKAP protein in lysates of FD patient-derived fibroblasts)
Type: cell-based, human
Conditions: FD patient-derived fibroblasts GM04589, 48 hours, 7-point concentration curve
Outline: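 FD patient-derived fibroblasts (10,000/well) treated 48 h at 37 °C with compound across a 7-point 3.16-fold series, in triplicate; lysates assayed by sandwich HTRF with two anti-IKAP antibodies, overnight at 4 °C, 665/620 nm read. MFI = ΔF over vehicle; EC2x = concentration doubling IKBKAP protein versus DMSO.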

For C[C@H](N)Cc1c(F)c2c(NCc3ccccc3F)nc(Cl)nc2n1C.Cl [Cpd 53, 6-[(2S)-2-aminopropyl]-2-chloro-5-fluoro-N-[(2-fluorophenyl)methyl]-7-methyl-7H-pyrrolo[2,3-d]pyrimidin-4-amine hydrochloride], the “EC2x for IKBKAP protein expression (concentration producing two times the amount of IKBKAP protein vs DMSO vehicle control)” value was “*** (between >0.02 μM and ≤0.5 μM is indicated by three stars (***))” and the “MFI (maximum fold increase in IKBKAP protein abundance relative to the vehicle control)” value was “**** (between >3.9 and ≤4.9 is indicated by four stars (****))”.
In the case of C[C@H](N)Cc1[nH]c2nc(Cl)nc(NCc3ccccn3)c2c1F.Cl.Cl [Cpd 54, 6-[(2S)-2-aminopropyl]-2-chloro-5-fluoro-N-[(pyridin-2-yl)methyl]-7H-pyrrolo[2,3-d]pyrimidin-4-amine dihydrochloride], the “EC2x for IKBKAP protein expression (concentration producing two times the amount of IKBKAP protein vs DMSO vehicle control)” value is reported as “*** (between >0.02 μM and ≤0.5 μM is indicated by three stars (***))” and the “MFI (maximum fold increase in IKBKAP protein abundance relative to the vehicle control)” value is reported as “** (between >1.9 and ≤2.9 is indicated by two stars (**))”.
With C[C@H](N)Cc1c(F)c2c(NCc3ccccn3)nc(Cl)nc2n1C.Cl.Cl [Cpd 55, 6-[(2S)-2-aminopropyl]-2-chloro-5-fluoro-7-methyl-N-[(pyridin-2-yl)methyl]-7H-pyrrolo[2,3-d]pyrimidin-4-amine dihydrochloride] the “EC2x for IKBKAP protein expression (concentration producing two times the amount of IKBKAP protein vs DMSO vehicle control)” value was “* (An EC2x>1 μM is indicated by one star (*))” and the “MFI (maximum fold increase in IKBKAP protein abundance relative to the vehicle control)” value was “* (An MFI≤1.9 is indicated by one star (*))”.
For C[C@H](N)Cc1[nH]c2nc(Cl)nc(NCc3cccnc3)c2c1F.Cl.Cl [Cpd 56, 6-[(2S)-2-aminopropyl]-2-chloro-5-fluoro-N-[(pyridin-3-yl)methyl]-7H-pyrrolo[2,3-d]pyrimidin-4-amine dihydrochloride], the “EC2x for IKBKAP protein expression (concentration producing two times the amount of IKBKAP protein vs DMSO vehicle control)” value was “* (An EC2x>1 μM is indicated by one star (*))” and the “MFI (maximum fold increase in IKBKAP protein abundance relative to the vehicle control)” value was “* (An MFI≤1.9 is indicated by one star (*))”.
For C[C@H](N)Cc1c(F)c2c(NCc3cccnc3)nc(Cl)nc2n1C.Cl.Cl [Cpd 57, 6-[(2S)-2-aminopropyl]-2-chloro-5-fluoro-7-methyl-N-[(pyridin-3-yl)methyl]-7H-pyrrolo[2,3-d]pyrimidin-4-amine dihydrochloride], the “EC2x for IKBKAP protein expression (concentration producing two times the amount of IKBKAP protein vs DMSO vehicle control)” value was “* (An EC2x>1 μM is indicated by one star (*))” and the “MFI (maximum fold increase in IKBKAP protein abundance relative to the vehicle control)” value was “* (An MFI≤1.9 is indicated by one star (*))”.
With CC[C@H](N)Cc1[nH]c2nc(Cl)nc(NCc3cccs3)c2c1F.Cl [Cpd 58, 6-[(2S)-2-aminobutyl]-2-chloro-5-fluoro-N-[(thiophen-2-yl)methyl]-7H-pyrrolo[2,3-d]pyrimidin-4-amine hydrochloride] the “EC2x for IKBKAP protein expression (concentration producing two times the amount of IKBKAP protein vs DMSO vehicle control)” value was “*** (between >0.02 μM and ≤0.5 μM is indicated by three stars (***))” and the “MFI (maximum fold increase in IKBKAP protein abundance relative to the vehicle control)” value was “**** (between >3.9 and ≤4.9 is indicated by four stars (****))”.
With CC[C@H](N)Cc1[nH]c2nc(Cl)nc(NCc3nccs3)c2c1F.Cl [Cpd 59, 6-[(2S)-2-aminobutyl]-2-chloro-5-fluoro-N-[(1,3-thiazol-2-yl)methyl]-7H-pyrrolo[2,3-d]pyrimidin-4-amine hydrochloride] the “EC2x for IKBKAP protein expression (concentration producing two times the amount of IKBKAP protein vs DMSO vehicle control)” value was “*** (between >0.02 μM and ≤0.5 μM is indicated by three stars (***))” and the “MFI (maximum fold increase in IKBKAP protein abundance relative to the vehicle control)” value was “***** (>4.9 is indicated by five stars (*****))”.
For C[C@@H](N)Cc1c(F)c2c(NCc3ccco3)nc(Cl)nc2n1C.Cl [Cpd 60, 6-[(2R)-2-aminopropyl]-2-chloro-5-fluoro-N-[(furan-2-yl)methyl]-7-methyl-7H-pyrrolo[2,3-d]pyrimidin-4-amine hydrochloride], the “EC2x for IKBKAP protein expression (concentration producing two times the amount of IKBKAP protein vs DMSO vehicle control)” value was “* (An EC2x>1 μM is indicated by one star (*))” and the “MFI (maximum fold increase in IKBKAP protein abundance relative to the vehicle control)” value was “* (An MFI≤1.9 is indicated by one star (*))”.
With C[C@H](N)Cc1cc2c(NCc3cscn3)nc(Cl)nc2[nH]1 [Cpd 61, 6-[(2S)-2-aminopropyl]-2-chloro-N-[(1,3-thiazol-4-yl)methyl]-7H-pyrrolo[2,3-d]pyrimidin-4-amine] the “EC2x for IKBKAP protein expression (concentration producing two times the amount of IKBKAP protein vs DMSO vehicle control)” value was “* (An EC2x>1 μM is indicated by one star (*))” and the “MFI (maximum fold increase in IKBKAP protein abundance relative to the vehicle control)” value was “* (An MFI≤1.9 is indicated by one star (*))”.
With C[C@H](N)Cc1[nH]c2nc(Br)nc(NCc3ccco3)c2c1F [Cpd 62, 6-[(2S)-2-aminopropyl]-2-bromo-5-fluoro-N-[(furan-2-yl)methyl]-7H-pyrrolo[2,3-d]pyrimidin-4-amine] the “EC2x for IKBKAP protein expression (concentration producing two times the amount of IKBKAP protein vs DMSO vehicle control)” value was “**** (between >0.005 μM and ≤0.02 μM is indicated by four stars (****))” and the “MFI (maximum fold increase in IKBKAP protein abundance relative to the vehicle control)” value was “***** (>4.9 is indicated by five stars (*****))”.
